Values belong to the compound of their own block, whether it stands above or below them. Where no end group is shown, it is not given here.
What was measured:
[1] = tested on: ASH::ChR2 animals; test: Cross-modal sensitization assay (reversal response to optogenetic ASH activation); format: in vivo, C. elegans
Description: Channelrhodopsin experiments: 1-2 day old well-fed adult animals were used for all experiments. For LED stimulation: for experiments with flp-20 mutant animals, a custom setup was used as described in ([Ezcurra et al., 2011]); for experiments on frpr-3 mutant animals and RNAi transgenic lines, a custom setup was used as in ([Ardiel et al., 2016], [Ardiel et al., 2017]) using 480 nm Luxeon star LEDs with 450 uw/mm^2 power. In contrast to locomotion arousal experiments described above, these experiments used an automated tapper, which produces equivalent speed responses (Figure S1C). […] ATR (R2500 Sigma-Aldrich) was provided to animals by feeding as described in ([Rabinowitch et al., 2016b]). > 20 animals were placed onto the seeded plate and at least 4 plates were assayed per condition and genotype on multiple days for all cross-modal sensitization behavioral experiments. Video recording was started 5 min after the plate was placed on the stage. For animals exposed to a pre-arousing tap, 1 tap was used, followed by a 20 s interval and then a 2 s blue light stimulation. […]
To test if 2-nonanone exposure could sensitize ASH-dependent reversals, 200 μL undiluted nonanone was spread with a pipette around the rim inside the lid of Petri dish. […] For all experiments, reversal length was analyzed using MATLAB ([Ardiel et al., 2017], [Ezcurra et al., 2011], [Ramot et al., 2008]).

[2] = tested on: C. elegans wild-type animals; test: Locomotion assay after odorant stimuli; format: in vivo; conditions: benzaldehyde 1% in ethanol, 2-nonanone undiluted, dropped in front of the nose
[3] = tested on: ASH neuron; test: Nonanone sensitization assay, ASH calcium imaging in microfluidics chip; format: in vivo, C. elegans; conditions: 5 s nonanone pulse (100%) then 0.5 M glycerol; GCaMP3; n = 9-10
Protocol: In microfluidics chip: Calcium imaging on 1-2 day old adult animals was performed in custom-designed microfluidic devices as described (using mechanical stimulus module from [Cho et al., 2018], [Cho et al., 2017]). These experiments were performed on a Leica DMIRB inverted microscope using a 40x air objective (N.A. 0.75). Video sequences were captured using a Hamamatsu EM-CCD camera with 100 ms exposure time. Simultaneous dual color imaging was performed using a DV2 beamsplitter (Photometrics) containing a GFP(520 nm)/RFP(605 nm) filter set. Excitation light for fluorescent imaging was delivered through a projector system ([Stirman et al., 2011]). […] Videos were recorded for 40-90 s following stimulus delivery. For analysis of calcium transients, fluorescence intensities for each frame were extracted using a custom MATLAB script ([Cho et al., 2018], [Cho et al., 2017]). […] GCaMP3 and RFP intensities were measured as the mean pixel intensity of the 100 brightest pixels in a circular region of interest (ROI) with a 10 pixel radius. […] All quantification is provided as the ratio of GCaMP3 to tagRFP fluorescence intensity. […]

[4] = target: T1, FRPR-3 (Caenorhabditis elegans, UniProt Q66GU0); test: In vitro GPCR activation assay (aequorin calcium bioluminescence, CHO/mtAEQ/Gα16 cells); format: cell-based, C. elegans; conditions: mammalian cells expressing aequorin and promiscuous Gα16
T1 sequence (Q66GU0 1-360): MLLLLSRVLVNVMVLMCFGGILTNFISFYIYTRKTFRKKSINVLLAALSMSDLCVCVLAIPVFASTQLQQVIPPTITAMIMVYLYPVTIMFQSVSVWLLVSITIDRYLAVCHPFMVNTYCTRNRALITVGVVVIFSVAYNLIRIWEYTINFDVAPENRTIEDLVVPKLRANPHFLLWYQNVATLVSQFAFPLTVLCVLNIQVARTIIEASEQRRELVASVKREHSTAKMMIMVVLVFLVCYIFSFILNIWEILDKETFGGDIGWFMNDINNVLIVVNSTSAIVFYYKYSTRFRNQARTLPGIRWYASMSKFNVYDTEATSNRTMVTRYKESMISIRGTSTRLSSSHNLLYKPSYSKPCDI
Protocol: Cell-based activation assays were performed as described ([Beets et al., 2012]). FRPR-3/C26F1.6 cDNA was cloned into the pcDNA3.1(+) TOPO expression vector (Thermo Fisher Scientific). Receptor activation was studied in Chinese hamster ovary cells (CHO) stably expressing apo-aequorin (mtAEQ) targeted to the mitochondria as well as the human Gα16 subunit. The CHO-K1 cell line (PerkinElmer, ES-000-A2) was used for receptor activation assays. CHO/mtAEQ/Gα16 cells were transiently transfected with the FRPR-3 cDNA construct or the empty pcDNA3.1(+) vector using the Lipofectamine transfection reagent (Thermo Fisher Scientific). Cells expressing the receptor were shifted to 28°C 1 day later, and collected 2 days post-transfection in BSA medium (DMEM/HAM’s F12 with 15 mM HEPES, without phenol red, 0.1% BSA) loaded with 5 μM coelenterazine h (Thermo Fisher Scientific) for 4 h to reconstitute the holo-enzyme aequorin. Cells (25,000 cells/well) were exposed to synthetic peptides in BSA medium, and aequorin bioluminescence was recorded for 30 s on a MicroBeta LumiJet luminometer (PerkinElmer, Waltham Massachusetts) in quadruplicate. For dose-response evaluations, after 30 s of ligand-stimulated calcium measurements, Triton X-100 (0.1%) was added to the well to obtain a measure of the maximum cell Ca^2+ response. BSA medium without peptides was used as a negative control and 1 μM ATP was used to check the functional response of the cells. Cells transfected with the empty vector were used as a negative control (not shown). EC50 values were calculated from dose-response curves, constructed using a nonlinear regression analysis, with sigmoidal dose-response equation (Prism 6.0).

Compound: O=Cc1ccccc1 [benzaldehyde]
- Effect of odorant presence on tap-evoked enhancement of ASH responses ([1]; 1% benzaldehyde in ethanol on lid, tap, 20 s wait, blue light 2 s, n>15): did not prevent enhancement of ASH responses by tap

Compound: CCCCCCCC(C)=O [nonanone, 2-nonanone]
- Increase in locomotion speed after stimulus [2]: can evoke locomotor arousal
- Enhancement of behavioral (reversal) response to optogenetic ASH activation by prior odorant exposure ([1]; 200 μL undiluted nonanone on lid, blue light 40 s later, n > 7): nor did it enhance behavioral responses to optogenetic activation of ASH
- Enhancement of ASH calcium responses to glycerol by prior odorant exposure [3]: did not significantly enhance ASH responses to glycerol

- EC50 values for activation of FRPR-3 (in words) [4]: low nanomolar range
Compound: AMMRF-NH2 [AMMRFa]

- EC50 values for activation of FRPR-3 (in words) [4]: low nanomolar range
Compound: AVFRM-NH2 [AVFRMa]

- EC50 values for activation of FRPR-3 (in words) [4]: low nanomolar range
Compound: SVFRL-NH2 [SVFRLa]
